Reference: patent US11970497B2, “Tricyclic AKR1C3 dependent KARS inhibitors” (Novartis AG, priority 2019, dated 2024)
Read-outs that look alike come from different tables or passages of the source.

Assays:
[1] = test system: Hara (NRF2 pathway wild type cell line with low AKR1C3 expression); experiment: In vitro cell proliferation assay (CellTiter-Glo), Hara; assay type: cell-based; conditions: 72 h, read-out: HARA Qualified absolute AC50
Method in brief: (§1)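 Cells seeded day 1 (H460 800/well, Hara 2000/well) in RPMI-1640 with 10% FBS; compounds added day 2 as 8-point 1:5 dilutions from 10 μM top. After 3 days at 37 °C, viability read by CellTiter-Glo luminescence, normalized to DMSO and MG132 (30 μM) controls to derive percentage activity and AC50.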

[2] = test system: H460 (NRF2 pathway mutant cell line with high AKR1C3 expression); experiment: In vitro cell proliferation assay (CellTiter-Glo), H460; assay type: cell-based; conditions: Homo sapiens, NCI-H460, 72 h, read-out: H460 Qualified absolute AC50
Method in brief: as §1

[3] = Hara cells, 3 days, CellTiter-Glo, top concentration 10 μM
[4] = H460 cells, 3 days, CellTiter-Glo, top concentration 10 μM

## C[C@H](O)CNC(=O)c1cc(CNC(=O)N2CCC3(CC2)CC(=O)c2cc(F)ccc2N3C)ccc1F [Example 117, (S)-6′-fluoro-N-(4-fluoro-3-((2-hydroxypropyl)carbamoyl)benzyl)-1′-methyl-4′-oxo-3′,4′-dihydro-1′H-spiro[piperidine-4,2′-quinoline]-1-carboxamide]
[1]; [3]
  AC50: > 10 µM
[2]; [4]
  AC50: 0.956 µM

## O=C1CC2(CCN(C(=O)NCc3ccon3)CC2)Nc2ccc(F)cc21 [Example 118, 6′-fluoro-N-(isoxazol-3-ylmethyl)-4′-oxo-3′,4′-dihydro-1′H-spiro[piperidine-4,2′-quinoline]-1-carboxamide]
[1]; [3]
  AC50: > 10 µM
[2]; [4]
  AC50: 1.01 µM

## Cc1cc(CNC(=O)N2CCC3(CC2)CC(=O)c2cc(F)ccc2N3)ccc1N [Example 119, N-(4-amino-3-methylbenzyl)-6′-fluoro-4′-oxo-3′,4′-dihydro-1′H-spiro[piperidine-4,2′-quinoline]-1-carboxamide]
[1]; [3]
  AC50: > 10 µM
[2]; [4]
  AC50: 1.02 µM

## O=C1CC2(CCN(C(=O)NCc3ccc4cc[nH]c4c3)CC2)Nc2ccc(F)cc21 [Example 120, N-((1H-indol-6-yl)methyl)-6′-fluoro-4′-oxo-3′,4′-dihydro-1′H-spiro[piperidine-4,2′-quinoline]-1-carboxamide]
[1]; [3]
  AC50: > 10 µM
[2]; [4]
  AC50: 1.05 µM

## Cc1ccc(CNC(=O)N2CCC3(CC2)CC(=O)c2cc(F)cc(F)c2N3)s1 [Example 123, 6′,8′-difluoro-N-((5-methylthiophen-2-yl)methyl)-4′-oxo-3′,4′-dihydro-1′H-spiro[piperidine-4,2′-quinoline]-1-carboxamide]
[1]; [3]
  AC50: 5.39 µM
[2]; [4]
  AC50: 1.14 µM

## O=C1CC2(CCN(C(=O)NCc3ccno3)CC2)Nc2ccc(F)cc21 [Example 124, 6′-fluoro-N-(isoxazol-5-ylmethyl)-4′-oxo-3′,4′-dihydro-1′H-spiro[piperidine-4,2′-quinoline]-1-carboxamide]
[1]; [3]
  AC50: > 10 µM
[2]; [4]
  AC50: 1.16 µM

## O=C1CC2(CCN(C(=O)NCc3ccc(F)nc3)CC2)Nc2c(F)cc(F)cc21 [Example 125, 6′,8′-difluoro-N-((6-fluoropyridin-3-yl)methyl)-4′-oxo-3′,4′-dihydro-1′H-spiro[piperidine-4,2′-quinoline]-1-carboxamide]
[1]; [3]
  AC50: > 10 µM
[2]; [4]
  AC50: 1.17 µM

## Nc1cc(CNC(=O)N2CCC3(CC2)CC(=O)c2cc(F)ccc2N3)c(F)cc1F [Example 126, N-(5-amino-2,4-difluorobenzyl)-6′-fluoro-4′-oxo-3′,4′-dihydro-1′H-spiro[piperidine-4,2′-quinoline]-1-carboxamide]
[1]; [3]
  AC50: > 10 µM
[2]; [4]
  AC50: 1.29 µM

## O=C1CC2(CCN(C(=O)NCc3cccc(CO)c3)CC2)Nc2c(F)cc(F)cc21 [Example 129, 6′,8′-difluoro-N-(3-(hydroxymethyl)benzyl)-4′-oxo-3′,4′-dihydro-1′H-spiro[piperidine-4,2′-quinoline]-1-carboxamide]
[1]; [3]
  AC50: > 10 µM
[2]; [4]
  AC50: 1.52 µM

## O=C1CC2(CCN(C(=O)NCc3cccc(-c4ncc[nH]4)c3)CC2)Nc2ccc(F)cc21 [Example 130, N-(3-(1H-imidazol-2-yl)benzyl)-6′-fluoro-4′-oxo-3′,4′-dihydro-1′H-spiro[piperidine-4,2′-quinoline]-1-carboxamide]
[1]; [3]
  AC50: > 10 µM
[2]; [4]
  AC50: 1.53 µM

## CS(=O)(=O)Nc1cc(CNC(=O)N2CCC3(CC2)CC(=O)c2cc(F)ccc2N3)ccc1F [Example 131, 6′-fluoro-N-(4-fluoro-3-(methylsulfonamido)benzyl)-4′-oxo-3′,4′-dihydro-1′H-spiro[piperidine-4,2′-quinoline]-1-carboxamide]
[1]; [3]
  AC50: > 10 µM
[2]; [4]
  AC50: 1.62 µM

## O=C1CC2(CCN(C(=O)NCc3ccc(F)c(CO)c3)CC2)Nc2c(F)cc(F)cc21 [Example 132, 6′,8′-difluoro-N-(4-fluoro-3-(hydroxymethyl)benzyl)-4′-oxo-3′,4′-dihydro-1′H-spiro[piperidine-4,2′-quinoline]-1-carboxamide]
[1]; [3]
  AC50: > 10 µM
[2]; [4]
  AC50: 1.72 µM

## O=C1CC2(CCN(C(=O)NCc3ccc(F)c(NS(=O)(=O)C4CC4)c3)CC2)Nc2ccc(F)cc21 [Example 133, N-(3-(cyclopropanesulfonamido)-4-fluorobenzyl)-6′-fluoro-4′-oxo-3′,4′-dihydro-1′H-spiro[piperidine-4,2′-quinoline]-1-carboxamide]
[1]; [3]
  AC50: > 10 µM
[2]; [4]
  AC50: 1.77 µM

## Cc1noc(CNC(=O)N2CCC3(CC2)CC(=O)c2cc(F)ccc2N3)n1 [Example 134, 6′-fluoro-N-((3-methyl-1,2,4-oxadiazol-5-yl)methyl)-4′-oxo-3′,4′-dihydro-1′H-spiro[piperidine-4,2′-quinoline]-1-carboxamide]
[1]; [3]
  AC50: 0.094 µM
[2]; [4]
  AC50: 1.78 µM

## CC(O)c1cc(CNC(=O)N2CCC3(CC2)CC(=O)c2cc(F)ccc2N3)ccc1F (centres unmarked) [Example 135, 6′-fluoro-N-(4-fluoro-3-(1-hydroxyethyl)benzyl)-4′-oxo-3′,4′-dihydro-1′H-spiro[piperidine-4,2′-quinoline]-1-carboxamide]
[1]; [3]
  AC50: > 10 µM
[2]; [4]
  AC50: 1.86 µM

## Nc1ccc(CNC(=O)N2CCC3(CC2)CC(=O)c2cc(F)ccc2N3)cn1 [Example 136, N-((6-aminopyridin-3-yl)methyl)-6′-fluoro-4′-oxo-3′,4′-dihydro-1′H-spiro[piperidine-4,2′-quinoline]-1-carboxamide]
[1]; [3]
  AC50: > 10 µM
[2]; [4]
  AC50: 1.99 µM

## Nc1cc(F)ccc1CNC(=O)N1CCC2(CC1)CC(=O)c1cc(F)ccc1N2 [Example 137, N-(2-amino-4-fluorobenzyl)-6′-fluoro-4′-oxo-3′,4′-dihydro-1′H-spiro[piperidine-4,2′-quinoline]-1-carboxamide]
[1]; [3]
  AC50: > 10 µM
[2]; [4]
  AC50: 2.03 µM

## O=C1CC2(CCN(C(=O)NCc3cocn3)CC2)Nc2ccc(F)cc21 [Example 138, 6′-fluoro-N-(oxazol-4-ylmethyl)-4′-oxo-3′,4′-dihydro-1′H-spiro[piperidine4,2′-quinoline]-1-carboxamide]
[1]; [3]
  AC50: > 10 µM
[2]; [4]
  AC50: 2.11 µM

## CN1c2ccc(F)cc2C(=O)CC12CCN(C(=O)NCc1ccc(F)c(C(C)(C)O)c1)CC2 [Example 139, 6′-fluoro-N-(4-fluoro-3-(2-hydroxypropan-2-yl)benzyl)-1′-methyl-4′-oxo-3′,4′-dihydro-1′H-spiro[piperidine-4,2′-quinoline]-1-carboxamide]
[1]; [3]
  AC50: 8.83 µM
[2]; [4]
  AC50: 2.3 µM

## CN1c2ccc(F)cc2C(=O)CC12CCN(C(=O)NCc1ccc(F)c(NCC(C)(C)C(=O)O)c1)CC2 [Example 140, 3-((2-fluoro-5-((6′-fluoro-1′-methyl-4′-oxo-3′,4′-dihydro-1′H-spiro[piperidine-4,2′-quinoline]-1-carboxamido)methyl)phenyl)amino)-2,2-dimethylpropanoic acid]
[1]
  AC50: > 10 µM
[2]
  AC50: 2.34 µM

## O=C1CC2(CCN(C(=O)NCc3cccc4nonc34)CC2)Nc2ccc(F)cc21 [Example 141, N-(benzo[c][1,2,5]oxadiazol-4-ylmethyl)-6′-fluoro-4′-oxo-3′,4′-dihydro-1′H-spiro[piperidine-4,2′-quinoline]-1-carboxamide]
[1]; [3]
  AC50: > 10 µM
[2]; [4]
  AC50: 2.45 µM

## Cc1cc(F)cc2c1NC1(CCN(C(=O)NCc3ccc(F)c(C(N)=O)c3)CC1)CC2=O [Example 142, N-(3-carbamoyl-4-fluorobenzyl)-6′-fluoro-8′-methyl-4′-oxo-3′,4′-dihydro-1′H-spiro[piperidine4,2′-quinoline]-1-carboxamide]
[1]; [3]
  AC50: > 10 µM
[2]; [4]
  AC50: 2.45 µM

## CCCNC(=O)c1cc(CNC(=O)N2CCC3(CC2)CC(=O)c2cc(F)ccc2N3)ccc1F [Example 143, 6′-fluoro-N-(4-fluoro-3-(propylcarbamoyl)benzyl)-4′-oxo-3′,4′-dihydro-1′H-spiro[piperidine-4,2′-quinoline]-1-carboxamide]
[1]; [3]
  AC50: > 10 µM
[2]; [4]
  AC50: 2.62 µM

## O=C1CC2(CCN(C(=O)NCc3cccc(-n4cncn4)c3)CC2)Nc2c(F)cc(F)cc21 [Example 144, N-(3-(1H-1,2,4-triazol-1-yl)benzyl)-6′,8′-difluoro-4′-oxo-3′,4′-dihydro-1′H-spiro[piperidine-4,2′-quinoline]-1-carboxamide]
[1]; [3]
  AC50: > 10 µM
[2]; [4]
  AC50: 3.05 µM

## Cn1cc(CNC(=O)N2CCC3(CC2)CC(=O)c2cc(F)ccc2N3)cn1 [Example 145, 6′-fluoro-N-((1-methyl-1H-pyrazol-4-yl)methyl)-4′-oxo-3′,4′-dihydro-1′H-spiro[piperidine-4,2′-quinoline]-1-carboxamide]
[1]; [3]
  AC50: 6.05 µM
[2]; [4]
  AC50: 3.5 µM

## O=C1CC2(CCN(C(=O)NCc3ccc(F)c(CNCCO)c3)CC2)Nc2ccc(F)cc21 [Example 146, 6′-fluoro-N-(4-fluoro-3-(((2-hydroxyethyl)amino)methyl)benzyl)-4′-oxo-3′,4′-dihydro-1′H-spiro[piperidine-4,2′-quinoline]-1-carboxamide]
[1]; [3]
  AC50: 2.79 µM
[2]; [4]
  AC50: 3.65 µM

## NS(=O)(=O)Cc1cc(CNC(=O)N2CCC3(CC2)CC(=O)c2cc(F)ccc2N3)ccc1F [Example 147, 6′-fluoro-N-(4-fluoro-3-(sulfamoylmethyl)benzyl)-4′-oxo-3′,4′-dihydro-1′H-spiro[piperidine-4,2′-quinoline]-1-carboxamide]
[1]; [3]
  AC50: > 10 µM
[2]; [4]
  AC50: 3.97 µM

## CN1c2ccc(F)cc2C(=O)CC12CCN(C(=O)NCc1ccc(F)c([C@@H](N)C(F)(F)F)c1)CC2 [Example 149, (R)—N-(3-(1-amino-2,2,2-trifluoroethyl)-4-fluorobenzyl)-6′-fluoro-1′-methyl-4′-oxo-3′,4′-dihydro-1′H-spiro[piperidine-4,2′-quinoline]-1-carboxamide]
[1]; [3]
  AC50: > 10 µM
[2]; [4]
  AC50: 5.43 µM
